Experimental data from patent US10538498B2, “1,3,4-oxadiazole sulfonamide derivative compounds as histone deacetylase 6 inhibitor, and the pharmaceutical composition comprising the same” (Chong Kun Dang Pharmaceutical Corp., priority 2015, dated 2020).

Columns and labels:
human recombinant HDAC1 = biological target: T1, human recombinant HDAC1 (Homo sapiens, UniProt Q13547); assay: HDAC1 enzyme activity inhibition assay (HDAC Fluorimetric Drug Discovery Kit); format: biochemical; conditions: 0.3 μg enzyme, 10 μM substrate, 30° C., 60 minutes
T1 construct: purchased Enzo Life Science BML-SE456
Procedure, shortened: (§1)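 Recombinant enzyme (0.3 μg) was incubated with 5-fold serially diluted compound and 10 μM Fluor de Lys-SIRT1 substrate for 60 min at 30° C. Developer II was then added for 30 min, fluorescence read at Ex 360/Em 460, and IC50 values were calculated.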

human recombinant HDAC6 = biological target: T2, human recombinant HDAC6 (Homo sapiens, UniProt Q9UBN7); assay: HDAC6 enzyme activity inhibition assay (HDAC Fluorimetric Drug Discovery Kit); format: biochemical; conditions: for HDAC6 selectivity (fold): HDAC1 vs HDAC6; for IC50: same protocol as the HDAC1 enzyme activity test
T2 construct: purchased Calbiochem 382180
T2 sequence (Q9UBN7 1-1215): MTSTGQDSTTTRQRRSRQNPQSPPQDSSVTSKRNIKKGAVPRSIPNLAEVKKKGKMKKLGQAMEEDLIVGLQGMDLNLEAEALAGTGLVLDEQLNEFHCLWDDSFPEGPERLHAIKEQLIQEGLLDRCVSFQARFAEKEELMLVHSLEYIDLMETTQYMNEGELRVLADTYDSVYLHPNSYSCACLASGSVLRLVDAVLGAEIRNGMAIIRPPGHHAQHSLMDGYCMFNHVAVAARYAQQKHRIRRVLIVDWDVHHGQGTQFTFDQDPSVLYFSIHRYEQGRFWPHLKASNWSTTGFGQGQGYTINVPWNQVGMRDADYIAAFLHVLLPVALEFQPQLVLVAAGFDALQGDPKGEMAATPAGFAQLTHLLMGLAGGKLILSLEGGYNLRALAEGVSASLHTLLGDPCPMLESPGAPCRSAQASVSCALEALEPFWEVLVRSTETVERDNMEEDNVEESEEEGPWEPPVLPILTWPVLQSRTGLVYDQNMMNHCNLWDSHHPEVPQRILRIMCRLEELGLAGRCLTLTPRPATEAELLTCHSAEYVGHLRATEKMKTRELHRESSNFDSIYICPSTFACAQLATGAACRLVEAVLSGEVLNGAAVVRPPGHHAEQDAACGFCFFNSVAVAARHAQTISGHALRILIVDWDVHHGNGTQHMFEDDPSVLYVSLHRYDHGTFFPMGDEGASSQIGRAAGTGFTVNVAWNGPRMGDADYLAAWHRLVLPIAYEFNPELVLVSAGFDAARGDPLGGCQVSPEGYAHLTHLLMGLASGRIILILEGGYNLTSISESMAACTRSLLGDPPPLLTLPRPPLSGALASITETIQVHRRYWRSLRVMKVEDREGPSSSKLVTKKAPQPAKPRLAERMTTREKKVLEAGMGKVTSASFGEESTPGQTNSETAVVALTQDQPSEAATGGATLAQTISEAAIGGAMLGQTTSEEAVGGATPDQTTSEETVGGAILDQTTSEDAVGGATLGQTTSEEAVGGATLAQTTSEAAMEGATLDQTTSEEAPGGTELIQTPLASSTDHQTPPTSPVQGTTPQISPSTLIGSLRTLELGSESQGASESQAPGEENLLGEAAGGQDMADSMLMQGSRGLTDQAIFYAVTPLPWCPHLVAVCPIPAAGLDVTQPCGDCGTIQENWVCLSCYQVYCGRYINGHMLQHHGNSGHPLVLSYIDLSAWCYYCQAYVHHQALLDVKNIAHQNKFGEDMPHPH
Procedure, shortened: as §1

T1 sequence (Q13547 whole entry): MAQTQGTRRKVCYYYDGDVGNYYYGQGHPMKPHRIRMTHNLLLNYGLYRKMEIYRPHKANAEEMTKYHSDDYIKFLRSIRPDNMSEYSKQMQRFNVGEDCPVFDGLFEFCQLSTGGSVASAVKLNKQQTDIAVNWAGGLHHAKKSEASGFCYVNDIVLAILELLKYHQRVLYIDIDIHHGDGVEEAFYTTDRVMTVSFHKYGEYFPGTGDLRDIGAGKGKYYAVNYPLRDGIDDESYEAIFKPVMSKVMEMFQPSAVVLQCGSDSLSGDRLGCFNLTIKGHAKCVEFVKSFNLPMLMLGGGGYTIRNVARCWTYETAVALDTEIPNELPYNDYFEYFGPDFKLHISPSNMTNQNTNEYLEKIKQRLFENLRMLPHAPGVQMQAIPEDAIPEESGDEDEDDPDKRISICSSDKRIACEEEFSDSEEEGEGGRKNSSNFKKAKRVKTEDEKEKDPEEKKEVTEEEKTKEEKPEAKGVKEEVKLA

IC50 (human recombinant HDAC1) [µM]	HDAC6 selectivity (fold) (human recombinant HDAC6)	IC50 (human recombinant HDAC6) [µM]	Structure (SMILES)
51.4	289	0.178	Cc1cccc(N(Cc2ccc(-c3nnc(C(F)F)o3)cc2)S(=O)(=O)C2CCN([C@H]3CC[C@@H](F)CC3)CC2)c1 [Compound 11696, N-(4-(5-(difluoromethyl)-1,3,4-oxadiazol-2-yl)benzyl)-1-((1s,4s)-4-fluorocyclohexyl)-N-(m-tolyl)piperidine-4-sulfonamide]
42.5	597	0.0711	C[C@H]1CCCN1CCCS(=O)(=O)N(Cc1ccc(-c2nnc(C(F)F)o2)cc1)c1ccccc1 [Compound 11707, (S)—N-(4-(5-(difluoromethyl)-1,3,4-oxadiazol-2-yl)benzyl)-3-(2-methylpyrrolidin-1-yl)-N-phenylpropane-1-sulfonamide]
65.1	837	0.0778	O=S(=O)(CCCO)N(Cc1ccc(-c2nnc(C(F)F)o2)cc1)c1ccccc1 [Compound 11708, N-(4-(5-(difluoromethyl)-1,3,4-oxadiazol-2-yl)benzyl)-3-hydroxy-N-phenylpropane-1-sulfonamide]
80.4	1065	0.0755	O=C(OCCCS(=O)(=O)N(Cc1ccc(-c2nnc(C(F)F)o2)cc1)c1ccccc1)C(F)F [Compound 11709, 3-(N-(4-(5-(difluoromethyl)-1,3,4-oxadiazol-2-yl)benzyl)-N-phenylsulfamoyl)propyl 2,2-difluoroacetate]
29.4	578	0.0509	O=S(=O)(CCCN1CCCC1)N(Cc1ccc(-c2nnc(C(F)F)o2)cn1)c1ccccc1 [Compound 11710, N-((5-(5-(difluoromethyl)-1,3,4-oxadiazol-2-yl)pyridin-2-yl)methyl)-N-phenyl-3-(pyrrolidin-1-yl)propane-1-sulfonamide]
61.3	874	0.0701	O=S(=O)(CCCN1CCOCC1)N(Cc1ccc(-c2nnc(C(F)F)o2)cn1)c1ccc(F)c(Cl)c1 [Compound 11711, N-(3-chloro-4-fluorophenyl)-N-((5-(5-(difluoromethyl)-1,3,4-oxadiazol-2-yl)pyridin-2-yl)methyl)-3-morpholinopropane-1-sulfonamide]
41	1266	0.0324	O=S(=O)(CCCN1CCCC1)N(Cc1ccc(-c2nnc(C(F)F)o2)cc1)c1ccc(F)c(Cl)c1 [Compound 11722, N-(3-chloro-4-fluorophenyl)-N-(4-(5-(difluoromethyl)-1,3,4-oxadiazol-2-yl)benzyl)-3-(pyrrolidin-1-yl)propane-1-sulfonamide]
33.5	594	0.0563	O=S(=O)(C1CCN([C@H]2CC[C@H](F)CC2)CC1)N(Cc1ccc(-c2nnc(C(F)F)o2)cn1)c1cccc(Cl)c1 [Compound 11727, N-(3-chlorophenyl)-N-((5-(5-(difluoromethyl)-1,3,4-oxadiazol-2-yl)pyridin-2-yl)methyl)-1-((1r,4r)-4-fluorocyclohexyl)piperidine-4-sulfonamide]
21.6	453	0.0476	O=S(=O)(C1CCN([C@H]2CC[C@@H](F)CC2)CC1)N(Cc1ccc(-c2nnc(C(F)F)o2)cn1)c1cccc(Cl)c1 [Compound 11728, N-(3-chlorophenyl)-N-((5-(5-(difluoromethyl)-1,3,4-oxadiazol-2-yl)pyridin-2-yl)methyl)-1-((1s,4s)-4-fluorocyclohexyl)piperidine-4-sulfonamide]
24.5	445	0.0551	NC(=O)[C@@H]1CCCN1CCS(=O)(=O)N(Cc1ccc(-c2nnc(C(F)F)o2)cn1)c1ccccc1 [Compound 11847, (S)-1-(2-(N-((5-(5-(difluoromethyl)-1,3,4-oxadiazol-2-yl)pyridin-2-yl)methyl)-N-phenylsulfamoyl)ethyl)pyrrolidine-2-carboxamide]
38.9	661	0.0589	NC(=O)[C@H]1CCCN1CCS(=O)(=O)N(Cc1ccc(-c2nnc(C(F)F)o2)cn1)c1ccccc1 [Compound 11848, (R)-1-(2-(N-((5-(5-(difluoromethyl)-1,3,4-oxadiazol-2-yl)pyridin-2-yl)methyl)-N-phenylsulfamoyl)ethyl)pyrrolidine-2-carboxamide]
